# Tests used:
# [1] = molecular target: T1, cellular STAT3 in MDA-MB-468 cells (Homo sapiens, UniProt P40763); assay: Pull-down assay using Bio-BENDA, anti-STAT3 immunoprecipitation; format: cell-based; conditions: 50 μM Bio-BENDA plus excess free drug, 4 h
# T1 construct: endogenous in cells; host or cells: MDA-MB-468
# Protocol: MDA-MB-468 cells were treated with biotinylated BENDA (Bio-BENDA) in the presence or absence of an excess amount of free drugs for 4 h and then lysed in PhosphoSafe™ Extraction Reagent (Merck, Darmstadt, Germany). Lysate (200 μL) was precleared with a mixture of Protein G Plus/Protein A Agarose Suspension (EMD Millipore, Billerica, MA, USA) for 1 h at 4°C and protein A and G agarose were removed by centrifugation at 13,000 rpm for 10 min. The lysate (200 μL) was immunoprecipitated with STAT3 antibody (1 μL) overnight at 4°C on a shaker and the immunocomplex was captured by the addition of a Protein G Plus/Protein A Agarose Suspension (30 μL) slurry for 1 h at 4°C. Samples were washed five times with lysis buffer and then boiled four times in SDS-PAGE sample buffer and run on an SDS-PAGE gel. The protein was transferred to a nitrocellulose membrane. The membranes were blocked in 5% skim milk in TBS/0.1% Tween 20. They were then incubated with streptavidin-HRP diluted at 1:2000 in 1.5% skim milk in TBS (pH7.4)/0.1% Tween 20 overnight at 4°C. Immunoblots were developed by using a chemiluminescent substrate.
# [2] = molecular target: T2, STAT3-DNA complex (c-myc promoter) in MDA-MB-468 cells (Homo sapiens, UniProt P40763); assay: ChIP assay, c-myc promoter binding by STAT3; format: cell-based; conditions: MDA-MB-468, 8 h; BENDA 25, 50, 100 μM, HP2 50, 100 μM
# T2 construct: endogenous in cells; host or cells: MDA-MB-468
# Protocol: A ChIP assay was performed with an ExactaChIP Human/Mouse STAT3 ChIP kit (R&D Systems, Minneapolis, MN, USA). MDA-MB-468 cancer cells were fixed with 1% formaldehyde and treated with the lysis buffer. After sonication, anti-STAT3 antibody or normal mouse IgG was added to the extract, followed by precipitation with Protein G Plus/Protein A Agarose Suspension. The eluted DNA fraction was used for PCR with human c-myc primers.
# T2 sequence (P40763 2-770 limits assumed, one chain of several): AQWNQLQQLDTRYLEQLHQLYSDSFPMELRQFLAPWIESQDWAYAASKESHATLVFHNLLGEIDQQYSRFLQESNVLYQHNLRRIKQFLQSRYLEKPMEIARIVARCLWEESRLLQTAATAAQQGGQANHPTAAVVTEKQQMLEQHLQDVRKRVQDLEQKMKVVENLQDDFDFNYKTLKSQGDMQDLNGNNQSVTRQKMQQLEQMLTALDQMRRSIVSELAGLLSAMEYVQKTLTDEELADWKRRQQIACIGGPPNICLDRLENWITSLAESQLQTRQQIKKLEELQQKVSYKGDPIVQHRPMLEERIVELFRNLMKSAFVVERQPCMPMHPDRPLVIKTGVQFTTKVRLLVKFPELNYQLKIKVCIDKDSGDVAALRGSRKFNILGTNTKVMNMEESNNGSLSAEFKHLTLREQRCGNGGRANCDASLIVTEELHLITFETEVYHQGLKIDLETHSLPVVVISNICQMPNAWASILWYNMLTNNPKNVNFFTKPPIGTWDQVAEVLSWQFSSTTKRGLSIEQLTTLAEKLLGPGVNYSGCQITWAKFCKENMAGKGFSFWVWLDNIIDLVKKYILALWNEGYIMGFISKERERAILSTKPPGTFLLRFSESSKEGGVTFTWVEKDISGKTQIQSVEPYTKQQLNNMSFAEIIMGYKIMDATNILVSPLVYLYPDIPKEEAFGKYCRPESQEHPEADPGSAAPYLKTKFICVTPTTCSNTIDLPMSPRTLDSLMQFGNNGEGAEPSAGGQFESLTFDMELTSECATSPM
# T1 sequence (P40763 2-770 limits assumed): as the sequence (P40763 2-770 limits assumed, one chain of several) above
smiles,measurement,setting,value
"Cn1c(CCCC(=O)O)nc2cc(N(CCCl)CCCl)ccc21 [BENDA, 4-{5-[bis(2-chloroethyl)amino]-1-methyl-2-benzimidazolyl} butyric acid]",Competition of Bio-BENDA STAT3 band intensity by excess free drug,[1],competitively reduced
same,Amplified c-myc promoter band in STAT3 ChIP,[2],reduced
